Experimental data: patent publication EP0738149B1 (priority 1994, dated 1995)
Where a name gives a salt, the structure may show the parent alone. Read-outs that look alike come from different tables or passages of the source.

Legend:
[1] = system: rats; test: Maximal electroshock (MES) model in rats, p.o.;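 as to all read-outs here: rat MES model gauging antiepileptic efficacy versus generalized and partial seizures after oral dosing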; assay type: in vivo; conditions: for ED50: Rattus norvegicus, po
[2] = system: mice; test: Maximal electroshock (MES) model in mice, i.p.;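 as to all read-outs here: Electroshock-induced convulsion model serving to demonstrate antiepileptic efficacy against generalized and partial seizures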; assay type: in vivo; conditions: for ED50: Mus musculus, ip
[3] = system: mice; test: Neurotoxicity in mice (rotorod ataxia test), i.p.
Method: (§1) Neurotoxicity of the claimed agents was also assessed in mice (i.p. administration) by the rotorod ataxia test and/or in rats (p.o. administration) by positional sense test and gait stance test. […] The term quantitating the neurotoxicity is the medial neurological toxic dose (TD50), was determined in the above tests.

[4] = system: mice; conditions: for ED50: Mus musculus, ip, read-out: MICE scMet ED50
[5] = system: rats; test: Neurotoxicity in rats (positional sense test and gait stance test), p.o.; conditions: rats, p.o.
Method: as §1

[6] = system: rats; conditions: Rattus norvegicus, po, read-out: RATS scMet ED50
[7] = Neurotoxicity in mice (rotorod ataxia test), i.p.; conditions: mouse, in vivo, ip
Method: as §1

[8] = in vivo; conditions: rat, in vivo, po
Method: as §1

[9] = system: Male mongolian gerbils; test: Global brain ischemia in gerbils (CA1 pyramidal neurons); assay type: in vivo; conditions: 3 injections, fraction of hippocampi protected from ischemia, 14 days post-ischemia
Method: Each artery was clamped for 5 minutes with aneurysm clips to produce global brain ischemia. The anesthesia was discontinued upon clamping. After 5 minutes the clamps were removed and the wound closed with skin clips.
For treatment, the test compound or vehicle were injected intra-peritoneally (ip) in a volume of 50 microliters of solvent per 10g body weight. The first injection was given two minutes after clamp removal, and thereafter daily for the next 2 post-operative days (total of 3 injections).
Seven groups each of 4-8 animals were compared: • I. Control; (sham- or unoperated and saline treated), • II. Vehicle treated, unoperated (when solvent is other than saline), • III. Ischemia - untreated or saline treated), • IV. Ischemia - vehicle treated (when solvent is other than saline), • V. Ischemia - Test compound treated, one sub-group per concentration tested, • VI. Ischemia and pentobarbital (40 mg/kg) as positive control).
Analysis of neuronal damage was performed 14 days post-ischemia by counting pyramidal neurons throughout the CA1 layer of the anterior hippocampus in […] thick (paraffin) coronal brain sections stained with hematoxylin and erosin.
Percent Protection values represent the fraction of hippocampi protected from ischemia in a group of animals treated with the stated dose of compound.

[10] = system: male ICR albino mice; test: Hypobaric hypoxia survival time in mice; assay type: in vivo
Method: Dessicator B was disconnected and allowed to equilibrate with room air whilst dessicator A was evacuated to a pressure of 100mmHg. […] The survival time from the moment of induction of hypoxia to the time of cessation of respiration was recorded for each mouse for a maximum of 15 minutes after which time room air was reintroduced to dessicator B. Survivors were monitored for signs of lethargy or vitality.
Effect of drug treatment was assessed as the percent of the survival time of the drug treated group with respect to the saline injected or vehicle injected control group. Control groups were run twice, before and after each experimental group and consisted of 12-16 mice in groups of 4 mice. Each experimental group always consisted of 4 mice to ensure a constant residual volume of oxygen in all tests. The effect of each dose of test drug was determined in duplicate i.e. two groups of 4 mice.
All drugs were administered intra-peritoneally at the dose indicated one hour prior to exposure to hypoxia.

[11] = system: mechanically dissociated neonatal rat cerebellum; test: Reversal of NMDA induced cell death in cultures of neonatal rat cerebellum; assay type: cell-based; conditions: separate experiment, Maximum Protection possible 90%
Method: The cerebellum was aseptically dissociated from 6 or 7-day old rat pups and placed in a 15ml sterile plastic conical tube containing 3ml of Dulbecco's modified Eagle's medium (DMEM) with a high glucose concentration ([…]) and 2mM (v/v) L-glutamine and an antibiotic antimitotic mixture. The cerebella were then dissociated after 20-25 passages through a sterile 13 gauge, 10cm long stainless steel needle attached to a 5ml syringe with an inserted 45 micrometer pore nylon sieve. The dissociated cells were centrifuged at 200g for 5 minutes. The supernatant was discarded and the cells resuspended in medium enriched with 15% (v/v) heat inactivated fetal calf serum. Cell viability was determined by the tryptan blue exclusion test.
Cells were plated at a density of 200/mm^2 on poly-L-lysine coated surfaces. Poly-L-lysine coated glass coverslips were prepared at least one hour in advance of plating by immersing sterile coverslips in sterile distilled water solution containing 15 microgram/ml poly-L-lysine, and washing in sterile water just prior to use. The plated cells were covered with enriched medium and incubated at 37°C in an atmosphere of 5% CO2 in air and 97% humidity. After three days in culture, the media was replaced with media containing the desired test compound. Each test compound was tested in duplicate. Toxic-dose response was determined for each compound.
Four groups were run in each set of experiments; • I. Control, consisting of enriched media alone, • II. N-methyl-D-aspartate (NMDA, 1mM for 3 hours) as the cytotoxic challenge, • III. Test compound plus NMDA, and • IV. Positive control, spermine(0.01 micromoles) plus NMDA.
Nerve cell survival was evaluated by phase contrast microscopy and tryptan blue staining after 24 hours.
Surviving cells in culture are measured relative to control (100%), as described above. Percent protection is the Cell Survival for the test compound minus the NMDA effect. Thus, maximal protection is 100% minus 30% NMDA effect i.e. […]. The Effective Protection was calculated as the percent of the Percent Protection (X) divided by the maximal protection value (e.g. X x 100/70).

[12] = system: rats; test: Closed head injury in rats: motor function (Neurological Severity Status), Experiments 4A-4E
[13] = read-out: RATS MES 50, rats, p.o., Table 15
[14] = rats, p.o., Table 15, read-out: RATS MES 50
[15] = Exp 4A, 0.1mg/kg i.p. at 0,4,8 and 12 hours post-trauma
[16] = Exp 4B, 0.1mg/kg once a day for 14 days

Cl.NC(=O)CN[C@@H]1CCc2ccccc21 [D, (R)-Indanylglycinamide-HCl salt]
RATS MES 50 ([1]; rats, p.o., Table 15): 105 mg/kg
MICE MES ED50 ([2]; i.p., Table 15): 83 mg/kg
MICE TD50 ([3]; mice, i.p., Table 15): 127 mg/kg
MICE TD50 ([3]; mice, i.p., Table 16): 127 mg/kg
MICE scMet ED50 ([4]; mice, i.p., Table 16): >130 mg/kg
RATS TD50 ([5]; Table 15): >180 mg/kg
RATS TD50 ([5]; Table 16): >180 mg/kg

C#CCN[C@@H]1CCc2ccccc21.Cl [E, (R)-N-propargyl-1-aminoindan HCl salt]
ED50 [1, 13]: < 50 mg/kg
ED50 ([2]; Table 15): 79 mg/kg
ED50 [6]: > 154 mg/kg

NC(=O)CN[C@@H]1CCc2ccccc21 [Example 1, (R)-N-(2-Aeetamido)-1-aminoindan.HCl]
RATS MES 50 ([1]; rats, p.o., Table 15): 50 mg/kg
ED50 ([2]; Table 15): 77 mg/kg
TD50 ([7]; MICE TD50, mice, Table 15): 198 mg/kg
TD50 ([7]; MICE TD50, mice, Table 16): 198 mg/kg
ED50 [4]: > 200 mg/kg
RATS TD50 ([5]; Table 16): >50 mg/kg
TD50 [8]: > 50 mg/kg

C#CCN[C@H]1CCc2ccccc21.CS(=O)(=O)O [H, (S)-N-propargyl-1-aminoindan mesylate salt]
ED50 [1, 13]: ≤ 50 mg/kg
ED50 ([2]; Table 15): ≤ 50 mg/kg
ED50 [4]: > 200 mg/kg

NC1CCc2ccc(F)cc21 (centres unmarked) [I, 6-fluoro-1-aminoindan]
ED50 [1, 14]: < 50 mg/kg
ED50 ([2]; Table 15): 66 mg/kg
ED50 [6]: > 100 mg/kg
MICE TD50 ([3]; mouse, in vivo, ip): 58 mg/kg
TD50 ([7]; MICE TD50): 58 mg/kg
RATS TD50 ([5]; Table 16): >50 mg/kg
TD50 [8]: > 50 mg/kg

C#CCNC1CCc2ccc(F)cc21 (centres unmarked) [L, 6-fluoro-N-propargyl-1-aminoindan]
ED50 [1, 14]: 50 mg/kg
ED50 ([2]; Table 15): 74 mg/kg
activity in the MES model in mice ([2]; statement in words): showed activity
ED50 [6]: > 300 mg/kg
MICE TD50 ([3]; mouse, in vivo, ip): 188 mg/kg
TD50 ([7]; MICE TD50): 188 mg/kg
RATS TD50 ([5]; Table 16): >50 mg/kg
TD50 [8]: > 50 mg/kg

N[C@H]1CCc2ccccc21 [SAI, (S)-1-aminoindan]
ED50 ([1]; read-out: RATS MES 50): 17 mg/kg
PERCENT PROTECTION ([9]; 0.1 mg/kg ip): 0%
PERCENT PROTECTION ([9]; 1.0 mg/kg ip): 50.0%
PERCENT PROTECTION ([9]; 10.0 mg/kg ip): 75.0%
PROTECTION % OF RESPECTIVE CONTROL ([10]; 50 mg/kg ip one hour prior to hypoxia): 174±39 % OF RESPECTIVE CONTROL
PROTECTION % OF RESPECTIVE CONTROL ([10]; 100 mg/kg ip one hour prior to hypoxia): 404±244 % OF RESPECTIVE CONTROL
PROTECTION % OF RESPECTIVE CONTROL ([10]; dose cell empty (line below 50 mg/kg ip)): 264±66 % OF RESPECTIVE CONTROL
MICE TD50 ([3]; mice, i.p., Table 16): 25 mg/kg
TD50 [7]: 25 mg/kg
EFFECTIVE PROTECTION ([11]; 0.01 µM): 43%
EFFECTIVE PROTECTION ([11]; 0.05 µM): 57%
NSS 1hr [12, 15]: 16.4
NSS 24hr [12, 15]: 10.8
ΔNSS ([12]; Exp 4A, 0.1mg/kg i.p. at 0,4,8 and 12 hours post-trauma, change 1 hour to 24 hours): 5.6±0.5
NSS at 1hr [12, 16]: 16.6±0.3
ΔNSS at 24hr [12, 16]: 5.5±0.4
ΔNSS at 48hr [12, 16]: 6.8±2.7
ΔNSS at 7d [12, 16]: 8.3±1.0
ΔNSS at 14d [12, 16]: 9.5±1.0
RATS TD50 ([5]; Table 16): >500 mg/kg
TD50 [8]: > 500 mg/kg
